Data reported in PubChem BioAssay (NCI).
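96-well plates; 48 h exposure; 5 concentrations. Endpoints by linear interpolation between flanking doses. Not reached: highest tested concentration assigned. GI50 = concentration required for 50% inhibition of growth. TGI marks complete inhibition of growth.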

Key:
Experiment in all cases: growth of human tumour cells (NCI), 48 h
NCI-H460 lung = test system: NCI-H460 lung
OVCAR-4 ovarian = test system: OVCAR-4 ovarian
RXF 393 renal = test system: RXF 393 renal
PC-3 prostate = test system: PC-3 prostate
IGROV1 ovarian = test system: IGROV1 ovarian
MCF7 breast = test system: MCF7 breast
SNB-75 CNS = test system: SNB-75 CNS
SF-539 CNS = test system: SF-539 CNS
NCI-H23 lung = test system: NCI-H23 lung
U251 CNS = test system: U251 CNS
ACHN renal = test system: ACHN renal
HCC-2998 colon = test system: HCC-2998 colon
EKVX NSCLC = test system: EKVX NSCLC
NCI-H226 lung = test system: NCI-H226 lung
OVCAR-3 ovarian = test system: OVCAR-3 ovarian
RPMI-8226 leukemia = test system: RPMI-8226 leukemia
HCT-116 colon = test system: HCT-116 colon
MDA-MB-231 breast = test system: MDA-MB-231 breast
SK-MEL-28 melanoma = test system: SK-MEL-28 melanoma
HOP-62 NSCLC = test system: HOP-62 NSCLC
UACC-62 melanoma = test system: UACC-62 melanoma
T-47D breast = test system: T-47D breast
SNB-19 CNS = test system: SNB-19 CNS
CAKI-1 renal = test system: CAKI-1 renal
HT29 colon = test system: HT29 colon
M14 melanoma = test system: M14 melanoma
HOP-92 NSCLC = test system: HOP-92 NSCLC
NCI/ADR-RES ovarian = test system: NCI/ADR-RES ovarian
UO-31 renal = test system: UO-31 renal
A549 NSCLC = test system: A549 NSCLC
SF-268 CNS = test system: SF-268 CNS
SN12C renal = test system: SN12C renal
LOX IMVI melanoma = test system: LOX IMVI melanoma
COLO 205 colon = test system: COLO 205 colon
NCI-H522 lung = test system: NCI-H522 lung
SK-MEL-5 melanoma = test system: SK-MEL-5 melanoma
OVCAR-8 ovarian = test system: OVCAR-8 ovarian
KM12 colon = test system: KM12 colon
SK-MEL-2 melanoma = test system: SK-MEL-2 melanoma
786-0 renal = test system: 786-0 renal
HCT-15 colon = test system: HCT-15 colon
A498 renal = test system: A498 renal
MOLT-4 leukemia = test system: MOLT-4 leukemia
TK-10 renal = test system: TK-10 renal
SK-OV-3 ovarian = test system: SK-OV-3 ovarian
MALME-3M melanoma = test system: MALME-3M melanoma
MDA-MB-435 = test system: MDA-MB-435
OVCAR-5 ovarian = test system: OVCAR-5 ovarian
BT-549 breast = test system: BT-549 breast
DU-145 prostate = test system: DU-145 prostate
SW-620 colon = test system: SW-620 colon
CCRF-CEM leukemia = test system: CCRF-CEM leukemia
SF-295 CNS = test system: SF-295 CNS
HS 578T breast = test system: HS 578T breast
UACC-257 melanoma = test system: UACC-257 melanoma
SR leukemia = test system: SR leukemia
K-562 leukemia = test system: K-562 leukemia
HL-60(TB) leukemia = test system: HL-60(TB) leukemia

Cc1ccccc1NC(=O)NC(CC(N)=O)c1ccc2c(c1)nc(-c1cccc(Oc3ccc(C(C)(C)C)cc3)c1)n2CCCN1CCCCC1C (stereo not given)
GI50 (NCI-H460 lung): 2 µM | TGI (NCI-H460 lung): 3.87 µM | GI50 (OVCAR-4 ovarian): 3.07 µM | TGI (OVCAR-4 ovarian): 8.39 µM | GI50 (RXF 393 renal): 2.91 µM | TGI (RXF 393 renal): 7.13 µM | GI50 (PC-3 prostate): 3.94 µM | TGI (PC-3 prostate): 12 µM | GI50 (IGROV1 ovarian): 3.25 µM | TGI (IGROV1 ovarian): 9.82 µM | GI50 (MCF7 breast): 1.92 µM | TGI (MCF7 breast): 3.54 µM | GI50 (SNB-75 CNS): 2.41 µM | TGI (SNB-75 CNS): 6.5 µM | GI50 (SF-539 CNS): 1.82 µM | TGI (SF-539 CNS): 3.77 µM | GI50 (NCI-H23 lung): 4.89 µM | TGI (NCI-H23 lung): 9.91 µM | GI50 (U251 CNS): 1.75 µM | TGI (U251 CNS): 3.23 µM | GI50 (ACHN renal): 9.08 µM | TGI (ACHN renal): 22.3 µM | GI50 (HCC-2998 colon): 2.23 µM | TGI (HCC-2998 colon): 5.04 µM | GI50 (EKVX NSCLC): 5.37 µM | TGI (EKVX NSCLC): 11.5 µM | GI50 (NCI-H226 lung): 7.9 µM | TGI (NCI-H226 lung): 25.7 µM | GI50 (OVCAR-3 ovarian): 2.57 µM | TGI (OVCAR-3 ovarian): 6.35 µM | GI50 (RPMI-8226 leukemia): 2.49 µM | TGI (RPMI-8226 leukemia): 6.48 µM | GI50 (HCT-116 colon): 1.71 µM | TGI (HCT-116 colon): 3.16 µM | GI50 (MDA-MB-231 breast): 2.34 µM | TGI (MDA-MB-231 breast): 5.27 µM | GI50 (SK-MEL-28 melanoma): 1.89 µM | TGI (SK-MEL-28 melanoma): 3.51 µM | GI50 (HOP-62 NSCLC): 1.97 µM | TGI (HOP-62 NSCLC): 4.46 µM | GI50 (UACC-62 melanoma): 1.71 µM | TGI (UACC-62 melanoma): 3.22 µM | GI50 (T-47D breast): 2.6 µM | TGI (T-47D breast): 10.5 µM | GI50 (SNB-19 CNS): 1.97 µM | TGI (SNB-19 CNS): 4.27 µM | GI50 (CAKI-1 renal): 17.2 µM | TGI (CAKI-1 renal): 42.8 µM | GI50 (HT29 colon): 1.95 µM | TGI (HT29 colon): 3.89 µM | GI50 (M14 melanoma): 1.83 µM | TGI (M14 melanoma): 3.44 µM | GI50 (HOP-92 NSCLC): 1.94 µM | TGI (HOP-92 NSCLC): 7.33 µM | GI50 (NCI/ADR-RES ovarian): 28 µM | TGI (NCI/ADR-RES ovarian): > 85.9 µM | GI50 (UO-31 renal): 16.4 µM | TGI (UO-31 renal): 31.9 µM | GI50 (A549 NSCLC): 5.54 µM | TGI (A549 NSCLC): 14.6 µM | GI50 (SF-268 CNS): 1.88 µM | TGI (SF-268 CNS): 3.88 µM | GI50 (SN12C renal): 4.49 µM | TGI (SN12C renal): 11.1 µM | GI50 (LOX IMVI melanoma): 1.67 µM | TGI (LOX IMVI melanoma): 3.14 µM | GI50 (COLO 205 colon): 1.82 µM | TGI (COLO 205 colon): 3.35 µM | GI50 (NCI-H522 lung): 1.88 µM | TGI (NCI-H522 lung): 3.57 µM | GI50 (SK-MEL-5 melanoma): 1.73 µM | TGI (SK-MEL-5 melanoma): 3.19 µM | GI50 (OVCAR-8 ovarian): 2.44 µM | TGI (OVCAR-8 ovarian): 6.63 µM | GI50 (KM12 colon): 2.34 µM | TGI (KM12 colon): 5.63 µM | GI50 (SK-MEL-2 melanoma): 11.1 µM | TGI (SK-MEL-2 melanoma): 23.3 µM | GI50 (786-0 renal): 4.19 µM | TGI (786-0 renal): 8.66 µM | GI50 (HCT-15 colon): 12.5 µM | TGI (HCT-15 colon): 27.1 µM | GI50 (A498 renal): 5.91 µM | TGI (A498 renal): 13.4 µM | GI50 (MOLT-4 leukemia): 3.39 µM | TGI (MOLT-4 leukemia): 9.65 µM | GI50 (TK-10 renal): 4.28 µM | TGI (TK-10 renal): 9.01 µM | GI50 (SK-OV-3 ovarian): 10.9 µM | TGI (SK-OV-3 ovarian): 23.9 µM | GI50 (MALME-3M melanoma): 1.88 µM | TGI (MALME-3M melanoma): 3.98 µM | GI50 (MDA-MB-435): 1.72 µM | TGI (MDA-MB-435): 3.3 µM | GI50 (OVCAR-5 ovarian): 5.21 µM | TGI (OVCAR-5 ovarian): 12 µM | GI50 (BT-549 breast): 13.3 µM | TGI (BT-549 breast): 26.1 µM | GI50 (DU-145 prostate): 5.4 µM | TGI (DU-145 prostate): 13.6 µM | GI50 (SW-620 colon): 1.84 µM | TGI (SW-620 colon): 3.49 µM | GI50 (CCRF-CEM leukemia): 3.03 µM | TGI (CCRF-CEM leukemia): 15.1 µM | GI50 (SF-295 CNS): 4.25 µM | TGI (SF-295 CNS): 9.57 µM | GI50 (HS 578T breast): 5.58 µM | TGI (HS 578T breast): 16.3 µM | GI50 (UACC-257 melanoma): 1.86 µM | TGI (UACC-257 melanoma): 3.49 µM

C#CCNC(Cc1ccccc1)C(=O)O (stereo not given)
TGI (NCI-H460 lung): > 100 µM | TGI (OVCAR-4 ovarian): > 100 µM | TGI (RXF 393 renal): > 100 µM | TGI (PC-3 prostate): > 100 µM | TGI (IGROV1 ovarian): > 100 µM | TGI (SNB-75 CNS): > 100 µM | TGI (NCI-H23 lung): > 100 µM | TGI (U251 CNS): > 100 µM | TGI (ACHN renal): > 100 µM | TGI (HCC-2998 colon): > 100 µM | TGI (EKVX NSCLC): > 100 µM | TGI (NCI-H226 lung): > 100 µM | TGI (OVCAR-3 ovarian): > 100 µM | TGI (RPMI-8226 leukemia): > 100 µM | TGI (HCT-116 colon): > 100 µM | TGI (MDA-MB-231 breast): > 100 µM | TGI (SK-MEL-28 melanoma): > 100 µM | TGI (HOP-62 NSCLC): > 100 µM | TGI (UACC-62 melanoma): > 100 µM | TGI (T-47D breast): > 100 µM | TGI (SR leukemia): > 100 µM | TGI (SNB-19 CNS): > 100 µM | TGI (CAKI-1 renal): > 100 µM | TGI (HT29 colon): > 100 µM | TGI (M14 melanoma): > 100 µM | TGI (HOP-92 NSCLC): > 100 µM | TGI (NCI/ADR-RES ovarian): > 100 µM | TGI (UO-31 renal): > 100 µM | TGI (A549 NSCLC): > 100 µM | TGI (SF-268 CNS): > 100 µM | TGI (LOX IMVI melanoma): > 100 µM | TGI (COLO 205 colon): > 100 µM | TGI (NCI-H522 lung): > 100 µM | TGI (SK-MEL-5 melanoma): > 100 µM | TGI (OVCAR-8 ovarian): > 100 µM | TGI (KM12 colon): > 100 µM | TGI (SK-MEL-2 melanoma): > 100 µM | TGI (786-0 renal): > 100 µM | TGI (K-562 leukemia): > 100 µM | TGI (HCT-15 colon): > 100 µM | TGI (A498 renal): > 100 µM | TGI (MOLT-4 leukemia): > 100 µM | TGI (TK-10 renal): > 100 µM | TGI (SK-OV-3 ovarian): > 100 µM | TGI (MALME-3M melanoma): > 100 µM | TGI (MDA-MB-435): > 100 µM | TGI (OVCAR-5 ovarian): > 100 µM | TGI (BT-549 breast): > 100 µM | TGI (DU-145 prostate): > 100 µM | TGI (SW-620 colon): > 100 µM | TGI (CCRF-CEM leukemia): > 100 µM | TGI (SF-295 CNS): > 100 µM | TGI (HS 578T breast): > 100 µM | TGI (UACC-257 melanoma): > 100 µM | TGI (HL-60(TB) leukemia): > 100 µM
